PubChem BioAssay (NCI)
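Test compounds were applied to cells in 96-well plates for 48 hours at 5 doses. The concentration for full growth arrest is given as TGI.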

Key:
Experiment in all cases: NCI tumour cell line growth inhibition, 48 h
[1] = system: SF-295 CNS
[2] = system: M14 melanoma
[3] = system: CAKI-1 renal
[4] = system: LXFL 529 NSCLC
[5] = system: HCT-15 colon
[6] = system: KM12 colon
[7] = system: SK-MEL-28 melanoma
[8] = system: NCI-H460 lung
[9] = system: SK-MEL-5 melanoma
[10] = system: CCRF-CEM leukemia
[11] = system: K-562 leukemia
[12] = system: OVCAR-4 ovarian
[13] = system: HCT-116 colon
[14] = system: HT29 colon
[15] = system: HOP-62 NSCLC
[16] = system: SF-268 CNS
[17] = system: OVCAR-5 ovarian
[18] = system: U251 CNS
[19] = system: UACC-257 melanoma
[20] = system: DLD-1 colon
[21] = system: TK-10 renal
[22] = system: MOLT-4 leukemia
[23] = system: SK-MEL-2 melanoma
[24] = system: A549 NSCLC
[25] = system: KM20L2 colon
[26] = system: SNB-19 CNS
[27] = system: SN12C renal
[28] = system: HCC-2998 colon
[29] = system: HOP-18 NSCLC
[30] = system: RPMI-8226 leukemia
[31] = system: SNB-75 CNS
[32] = system: NCI-H522 lung
[33] = system: IGROV1 ovarian
[34] = system: 786-0 renal
[35] = system: SK-OV-3 ovarian
[36] = system: UO-31 renal
[37] = system: XF 498 CNS
[38] = system: NCI-H23 lung
[39] = system: SW-620 colon
[40] = system: ACHN renal
[41] = system: MALME-3M melanoma
[42] = system: DMS 114 small cell lung
[43] = system: COLO 205 colon
[44] = system: OVCAR-3 ovarian
[45] = system: OVCAR-8 ovarian
[46] = system: M19-MEL melanoma
[47] = system: EKVX NSCLC
[48] = system: SF-539 CNS
[49] = system: SNB-78 CNS
[50] = system: A498 renal
[51] = system: UACC-62 melanoma
[52] = system: RXF-631 renal
[53] = system: DMS 273 small cell lung
[54] = system: LOX IMVI melanoma
[55] = system: HL-60(TB) leukemia
[56] = system: HOP-92 NSCLC
[57] = system: RXF 393 renal
[58] = system: SR leukemia

SMILES: CN(C)c1ccc(/C=C/C(=O)C(C)(C)C)cc1Br
- TGI [1]: > 100 µM
- TGI [2]: 43.2 µM
- TGI [3]: 91.9 µM
- TGI [4]: 92.4 µM
- TGI [5]: 48.6 µM
- TGI [6]: 56.1 µM
- TGI [7]: 47.7 µM
- TGI [8]: > 100 µM
- TGI [9]: 35.5 µM
- TGI [10]: 85.1 µM
- TGI [11]: 86.3 µM
- TGI [12]: 52.2 µM
- TGI [13]: 38.1 µM
- TGI [14]: > 100 µM
- TGI [15]: > 100 µM
- TGI [16]: 70 µM
- TGI [17]: > 100 µM
- TGI [18]: > 100 µM
- TGI [19]: 61.9 µM
- TGI [20]: 43.9 µM
- TGI [21]: 87.3 µM
- TGI [22]: 71.7 µM
- TGI [23]: 36.7 µM
- TGI [24]: > 100 µM
- TGI [25]: 79.5 µM
- TGI [26]: > 100 µM
- TGI [27]: 76 µM
- TGI [28]: 73.9 µM
- TGI [29]: > 100 µM
- TGI [30]: 58.7 µM
- TGI [31]: 70.3 µM
- TGI [32]: 31.9 µM
- TGI [33]: > 100 µM
- TGI [34]: 59 µM
- TGI [35]: > 100 µM
- TGI [36]: > 100 µM
- TGI [37]: 30.3 µM
- TGI [38]: 75.9 µM
- TGI [39]: 60.2 µM
- TGI [40]: > 100 µM
- TGI [41]: > 100 µM
- TGI [42]: 40.1 µM
- TGI [43]: 67.2 µM
- TGI [44]: > 100 µM
- TGI [45]: 54.1 µM
- TGI [46]: 50.9 µM
- TGI [47]: > 100 µM
- TGI [48]: 71 µM
- TGI [49]: > 100 µM
- TGI [50]: > 100 µM
- TGI [51]: 34.2 µM

SMILES: N#CCCN(CCC#N)c1ccc(/C=C2\N=C(COc3ccc(Cl)cc3Cl)OC2=O)cc1
- TGI [1]: > 100 µM
- TGI [52]: > 100 µM
- TGI [53]: > 100 µM
- TGI [2]: > 100 µM
- TGI [3]: > 100 µM
- TGI [4]: > 100 µM
- TGI [5]: > 100 µM
- TGI [6]: > 100 µM
- TGI [7]: > 100 µM
- TGI [8]: > 100 µM
- TGI [9]: > 100 µM
- TGI [10]: > 100 µM
- TGI [11]: > 100 µM
- TGI [12]: > 100 µM
- TGI [13]: > 100 µM
- TGI [14]: > 100 µM
- TGI [15]: > 100 µM
- TGI [16]: > 100 µM
- TGI [17]: > 100 µM
- TGI [18]: > 100 µM
- TGI [19]: > 100 µM
- TGI [20]: > 100 µM
- TGI [21]: > 100 µM
- TGI [22]: > 100 µM
- TGI [23]: > 100 µM
- TGI [24]: > 100 µM
- TGI [25]: > 100 µM
- TGI [26]: > 100 µM
- TGI [27]: > 100 µM
- TGI [28]: > 100 µM
- TGI [30]: > 100 µM
- TGI [31]: > 100 µM
- TGI [32]: > 100 µM
- TGI [33]: > 100 µM
- TGI [34]: > 100 µM
- TGI [35]: > 100 µM
- TGI [36]: > 100 µM
- TGI [37]: > 100 µM
- TGI [38]: > 100 µM
- TGI [39]: > 100 µM
- TGI [54]: > 100 µM
- TGI [41]: > 100 µM
- TGI [42]: > 100 µM
- TGI [43]: > 100 µM
- TGI [55]: > 100 µM
- TGI [44]: > 100 µM
- TGI [45]: > 100 µM
- TGI [46]: > 100 µM
- TGI [47]: > 100 µM
- TGI [48]: > 100 µM
- TGI [49]: > 100 µM
- TGI [50]: > 100 µM
- TGI [51]: > 100 µM

SMILES: O=c1[nH]c(=O)n(C2CC(O)C(CO)O2)cc1C(OCC(F)(F)F)OCC(F)(F)F (stereo not drawn)
- TGI [1]: > 100 µM
- TGI [52]: > 100 µM
- TGI [53]: > 100 µM
- TGI [2]: > 100 µM
- TGI [3]: > 100 µM
- TGI [4]: > 100 µM
- TGI [56]: > 100 µM
- TGI [6]: > 100 µM
- TGI [7]: > 100 µM
- TGI [8]: > 100 µM
- TGI [9]: > 100 µM
- TGI [10]: > 100 µM
- TGI [11]: > 100 µM
- TGI [12]: > 100 µM
- TGI [14]: > 100 µM
- TGI [15]: > 100 µM
- TGI [16]: > 100 µM
- TGI [17]: > 100 µM
- TGI [18]: > 100 µM
- TGI [19]: > 100 µM
- TGI [20]: > 100 µM
- TGI [21]: > 100 µM
- TGI [22]: > 100 µM
- TGI [23]: > 100 µM
- TGI [24]: > 100 µM
- TGI [25]: > 100 µM
- TGI [26]: > 100 µM
- TGI [27]: > 100 µM
- TGI [28]: > 100 µM
- TGI [30]: > 100 µM
- TGI [31]: > 100 µM
- TGI [32]: > 100 µM
- TGI [33]: > 100 µM
- TGI [34]: > 100 µM
- TGI [35]: > 100 µM
- TGI [36]: > 100 µM
- TGI [37]: > 100 µM
- TGI [38]: > 100 µM
- TGI [39]: > 100 µM
- TGI [54]: > 100 µM
- TGI [40]: > 100 µM
- TGI [41]: > 100 µM
- TGI [42]: > 100 µM
- TGI [57]: > 100 µM
- TGI [43]: > 100 µM
- TGI [55]: > 100 µM
- TGI [44]: > 100 µM
- TGI [45]: > 100 µM
- TGI [46]: > 100 µM
- TGI [47]: > 100 µM
- TGI [48]: > 100 µM
- TGI [49]: > 100 µM
- TGI [50]: > 100 µM
- TGI [51]: > 100 µM

SMILES: OCCN(CCO)c1cccc(N(CCO)CCO)c1
- TGI [1]: > 100 µM
- TGI [52]: > 100 µM
- TGI [53]: > 100 µM
- TGI [2]: > 100 µM
- TGI [3]: > 100 µM
- TGI [4]: > 100 µM
- TGI [5]: > 100 µM
- TGI [56]: > 100 µM
- TGI [6]: > 100 µM
- TGI [7]: > 100 µM
- TGI [8]: > 100 µM
- TGI [9]: > 100 µM
- TGI [10]: > 100 µM
- TGI [11]: > 100 µM
- TGI [12]: > 100 µM
- TGI [13]: > 100 µM
- TGI [15]: > 100 µM
- TGI [16]: > 100 µM
- TGI [18]: > 100 µM
- TGI [19]: > 100 µM
- TGI [20]: > 100 µM
- TGI [21]: > 100 µM
- TGI [22]: > 100 µM
- TGI [23]: > 100 µM
- TGI [24]: > 100 µM
- TGI [25]: > 100 µM
- TGI [26]: > 100 µM
- TGI [30]: > 100 µM
- TGI [31]: > 100 µM
- TGI [32]: > 100 µM
- TGI [34]: > 100 µM
- TGI [35]: > 100 µM
- TGI [58]: > 100 µM
- TGI [36]: 92.2 µM
- TGI [37]: > 100 µM
- TGI [38]: > 100 µM
- TGI [39]: > 100 µM
- TGI [54]: > 100 µM
- TGI [40]: > 100 µM
- TGI [42]: > 100 µM
- TGI [57]: > 100 µM
- TGI [43]: > 100 µM
- TGI [55]: > 100 µM
- TGI [44]: > 100 µM
- TGI [45]: > 100 µM
- TGI [46]: > 100 µM
- TGI [47]: > 100 µM
- TGI [49]: > 100 µM
- TGI [50]: > 100 µM
- TGI [51]: > 100 µM
